The target of one test is T1, rat P2X3 receptor (Rattus norvegicus, UniProt P49654).
T1 construct: expressed in transfected cells; host or cells: CHO-K1
T1 sequence (P49654 1-397): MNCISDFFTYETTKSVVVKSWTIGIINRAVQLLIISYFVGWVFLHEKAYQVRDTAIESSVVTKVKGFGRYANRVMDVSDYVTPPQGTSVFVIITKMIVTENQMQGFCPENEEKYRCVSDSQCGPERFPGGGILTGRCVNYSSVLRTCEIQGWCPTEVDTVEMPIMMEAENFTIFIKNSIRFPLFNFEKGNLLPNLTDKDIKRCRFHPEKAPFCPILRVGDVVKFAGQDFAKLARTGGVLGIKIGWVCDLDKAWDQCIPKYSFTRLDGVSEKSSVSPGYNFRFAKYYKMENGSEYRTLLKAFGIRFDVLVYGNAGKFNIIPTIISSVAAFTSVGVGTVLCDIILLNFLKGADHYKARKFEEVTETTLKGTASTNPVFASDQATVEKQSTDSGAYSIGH
The experiment in a line: P2X3 FLIPR (Fluorometric Imaging Plate Reader) assay. The following applies: CHO-K1 cells transfected with rat P2X3; agonist α,β-meATP 1 μM; FLIPR calcium fluorescence; read-out: pKi P2X3 (converted). The class given is cell-based. As for the experimental part:
(§1) CHO-K1 cells were transfected with cloned rat P2X3 or human P2X2/3 receptor subunits and passaged in flasks. 18-24 hours before the FLIPR experiment, cells were released from their flasks, centrifuged, and resuspended in nutrient medium at 2.5×10^5 cells/ml. The cells were aliquoted into black-walled 96-well plates at a density of 50,000 cells/well and incubated overnight in 5% CO2 at 37° C. On the day of the experiment, cells were washed in FLIPR buffer (calcium- and magnesium-free Hank's balanced salt solution, 10 mM HEPES, 2 mM CaCl2, 2.5 mM probenecid; FB). Each well received 100 μl FB and 100 μl of the fluorescent dye Fluo-3 AM [2 μM final conc.]. After a 1 hour dye loading incubation at 37° C., the cells were washed 4 times with FB, and a final 75 μl/well FB was left in each well.
(§2) Test compounds (dissolved in DMSO at 10 mM and serially diluted with FB) or vehicle were added to each well (25 μl of a 4× solution) and allowed to equilibrate for 20 minutes at room temperature. The plates were then placed in the FLIPR and a baseline fluorescence measurement (excitation at 488 nm and emission at 510-570 nm) was obtained for 10 seconds before a 100 μl/well agonist or vehicle addition. The agonist was a 2× solution of α,β-meATP producing a final concentration of 1 μM (P2X3) or 5 μM (P2X2/3). Fluorescence was measured for an additional 2 minutes at 1 second intervals after agonist addition. A final addition of ionomycin (5 μM, final concentration) was made to each well of the FLIPR test plate to establish cell viability and maximum fluorescence of dye-bound cytosolic calcium. Peak fluorescence in response to the addition of α,β-meATP (in the absence and presence of test compounds) was measured and inhibition curves generated using nonlinear regression. PPADS, a standard P2X antagonist, was used as a positive control.

Another test deals with T2, human P2X2/3 receptor (Homo sapiens, UniProt P56373+Q9UBL9).
T2 construct: expressed in transfected cells; host or cells: CHO-K1
T2 sequence (Q9UBL9 1-471): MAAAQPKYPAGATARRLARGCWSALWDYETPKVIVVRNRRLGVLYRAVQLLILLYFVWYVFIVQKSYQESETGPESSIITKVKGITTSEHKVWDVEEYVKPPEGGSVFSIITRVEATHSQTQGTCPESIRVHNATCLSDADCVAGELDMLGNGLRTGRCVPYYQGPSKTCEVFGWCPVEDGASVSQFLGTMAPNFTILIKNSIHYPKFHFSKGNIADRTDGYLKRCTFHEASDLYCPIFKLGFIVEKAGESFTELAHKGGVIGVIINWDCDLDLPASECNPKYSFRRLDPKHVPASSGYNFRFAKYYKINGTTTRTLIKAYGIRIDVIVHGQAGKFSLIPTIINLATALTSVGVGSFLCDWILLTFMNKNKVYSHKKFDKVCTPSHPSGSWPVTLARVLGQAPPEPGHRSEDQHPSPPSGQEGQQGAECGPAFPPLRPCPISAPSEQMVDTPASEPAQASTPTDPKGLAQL
T2 sequence (P56373 1-397): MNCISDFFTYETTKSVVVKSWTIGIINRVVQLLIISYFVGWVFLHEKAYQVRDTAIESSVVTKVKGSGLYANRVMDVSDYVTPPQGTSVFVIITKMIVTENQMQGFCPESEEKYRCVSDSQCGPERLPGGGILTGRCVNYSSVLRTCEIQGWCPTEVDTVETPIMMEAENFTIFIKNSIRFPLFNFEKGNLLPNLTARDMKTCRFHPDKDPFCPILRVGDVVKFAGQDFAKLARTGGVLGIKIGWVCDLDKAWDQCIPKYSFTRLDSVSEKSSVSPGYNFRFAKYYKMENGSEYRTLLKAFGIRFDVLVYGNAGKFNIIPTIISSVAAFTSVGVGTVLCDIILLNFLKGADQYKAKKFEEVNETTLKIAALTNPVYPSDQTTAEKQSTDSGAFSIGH
The experiment in a line: P2X2/3 FLIPR (Fluorometric Imaging Plate Reader) assay. The class given is cell-based. The following applies: CHO-K1 cells transfected with human P2X2/3; agonist α,β-meATP 5 μM; FLIPR calcium fluorescence; read-out: pKi P2X2/3 (converted). As for the experimental part:
as §1, §2

In the case of `Cc1ccc(-c2cc(C(=O)NCc3ccc(C)nn3)cc(N3C(=O)OCC3(C)C)c2)nc1` [Compound 31, 3-(4,4-Dimethyl-2-oxo-oxazolidin-3-yl)-N-(6-methyl-pyridazin-3-ylmethyl)-5-(5-methyl-pyridin-2-yl)-benzamide], the figures for the Ki at rat P2X3 receptor and on human P2X2/3 receptor were 0.00562 µM and 0.0851 µM, respectively.

For the compound `CCC1COC(=O)N1c1cc(C(=O)NC(C)c2cnccn2)cc(-c2ccc(C)cn2)c1` (stereo not shown) [Compound 18, 3-(4-Ethyl-2-oxo-oxazolidin-3-yl)-5-(5-methyl-pyridin-2-yl)-N-(1-pyrazin-2-yl-ethyl)-benzamide], the Ki on rat P2X3 receptor is 0.00759 µM; at human P2X2/3 receptor, 0.339 µM.

As to `Cc1ccc(-c2cc(C(=O)NCc3cnc(C)cn3)cc(N3C(=O)OC[C@H]3C(C)C)c2)cc1` [Compound 40, 5-((R)-4-Isopropyl-2-oxo-oxazolidin-3-yl)-4′-methyl-biphenyl-3-carboxylic acid (5-methyl-pyrazin-2-ylmethyl)-amide], the Ki was 0.0123 µM on rat P2X3 receptor and 0.038 µM at human P2X2/3 receptor.

For the compound `Cc1ccc(-c2cc(C(=O)N[C@@H](C)CO)cc(N3C(=O)OC[C@H]3C(C)C)c2)cc1` [Compound 38, 5-((R)-4-Isopropyl-2-oxo-oxazolidin-3-yl)-4′-methyl-biphenyl-3-carboxylic acid ((S)-2-hydroxy-1-methyl-ethyl)-amide], the Ki on rat P2X3 receptor was 0.00219 µM; at human P2X2/3 receptor, 0.0794 µM.

In the case of `Cc1ccc(-c2cc(C(=O)NCc3cnc(C)cn3)cc(-n3c(=O)oc4ccccc43)c2)nc1` [Compound 1, N-(5-Methyl-pyrazin-2-ylmethyl)-3-(5-methyl-pyridin-2-yl)-5-(2-oxo-benzooxazol-3-yl)-benzamide], the Ki at rat P2X3 receptor was 0.00794 µM; at human P2X2/3 receptor, 0.0288 µM.

As for `Cc1ccc(-c2cc(C(=O)NCc3cnc(C)cn3)cc(N3C(=O)OC[C@H]3C(C)C)c2)c(F)c1` [Compound 48, 2′-Fluoro-5-((R)-4-isopropyl-2-oxo-oxazolidin-3-yl)-4′-methyl-biphenyl-3-carboxylic acid (5-methyl-pyrazin-2-ylmethyl)-amide], the Ki at rat P2X3 receptor is 0.0132 µM; at human P2X2/3 receptor, 0.038 µM.

With `Cc1ccc(-c2cc(C(=O)NC3CC3)cc(N3C(=O)OC[C@H]3C(C)C)c2)c(F)c1` [Compound 49, 2′-Fluoro-5-((R)-4-isopropyl-2-oxo-oxazolidin-3-yl)-4′-methyl-biphenyl-3-carboxylic acid cyclopropylamide], the Ki is 0.00891 µM at rat P2X3 receptor and 0.123 µM on human P2X2/3 receptor.

In the case of `Cc1ccc(-c2cc(C(=O)NC(C)c3cnccn3)cc(-n3c(=O)[nH]c4ccccc43)c2)nc1` (stereo not shown) [Compound 4, 3-(5-Methyl-pyridin-2-yl)-5-(2-oxo-2,3-dihydro-benzoimidazol-1-yl)-N-(1-pyrazin-2-yl-ethyl)-benzamide], the Ki on rat P2X3 receptor is 0.00407 µM; on human P2X2/3 receptor it was 0.191 µM.

On to `Cc1ccc(-c2cc(C(=O)NC(C)c3cnccn3)cc(N3C(=O)OC[C@@H]3C(C)C)c2)cc1` (stereo partly drawn) [Compound 45, 5-((S)-4-Isopropyl-2-oxo-oxazolidin-3-yl)-4′-methyl-biphenyl-3-carboxylic acid (1-pyrazin-2-yl-ethyl)-amide], for which the figures for the Ki on rat P2X3 receptor and on human P2X2/3 receptor were 0.263 µM and 7.59 µM, respectively.

`Cc1ccc(-c2cc(C(=O)NCc3cnc(C)cn3)cc(-n3c(=O)oc4ccccc43)c2)cc1` [Compound 51, 4′-Methyl-5-(2-oxo-benzooxazol-3-yl)-biphenyl-3-carboxylic acid (5-methyl-pyrazin-2-ylmethyl)-amide]: the Ki on rat P2X3 receptor was 0.011 µM; on human P2X2/3 receptor, 0.0316 µM.

Regarding `Cc1ccc(-c2cc(C(=O)NC(C)c3cnccn3)cc(N3C(=O)CCC3C)c2)nc1` (stereo not shown) [Compound 27, 3-(2-Methyl-5-oxo-pyrrolidin-1-yl)-5-(5-methyl-pyridin-2-yl)-N-(1-pyrazin-2-yl-ethyl)-benzamide], the Ki on rat P2X3 receptor is 0.0389 µM; at human P2X2/3 receptor it was 7.76 µM.

Regarding `Cc1ccc(-c2cc(C(=O)NC(C)c3cnccn3)cc(N3C(=O)Cc4ccccc43)c2)cc1` (stereo not shown) [Compound 54, 4′-Methyl-5-(2-oxo-2,3-dihydro-indol-1-yl)-biphenyl-3-carboxylic acid (1-pyrazin-2-yl-ethyl)-amide], the Ki was 0.02 µM on rat P2X3 receptor and 0.112 µM at human P2X2/3 receptor.

In the case of `Cc1ccc(-c2cc(C(=O)NC(C)c3cnccn3)cc(N3C(=O)OCC3(C)C)c2)nc1` (stereo not shown) [Compound 20, 3-(4,4-Dimethyl-2-oxo-oxazolidin-3-yl)-5-(5-methyl-pyridin-2-yl)-N-(1-pyrazin-2-yl-ethyl)-benzamide], the values for the Ki on rat P2X3 receptor and on human P2X2/3 receptor were 0.00631 µM and 0.123 µM, respectively.

`Cc1ccc(-c2cc(C(=O)NCc3cnc(C)cn3)cc(N3C(=O)CCC3C)c2)nc1` (stereo not shown) [Compound 28, 3-(2-Methyl-5-oxo-pyrrolidin-1-yl)-N-(5-methyl-pyrazin-2-ylmethyl)-5-(5-methyl-pyridin-2-yl)-benzamide]: the results for the Ki at rat P2X3 receptor and on human P2X2/3 receptor were 0.0302 µM and 2.04 µM, respectively.

Regarding `Cc1ccc(-c2cc(C(=O)NC3CC3)cc(N3C(=O)OC[C@H]3C(C)C)c2)cc1` [Compound 41, 5-((R)-4-Isopropyl-2-oxo-oxazolidin-3-yl)-4′-methyl-biphenyl-3-carboxylic acid cyclopropylamide], the Ki on rat P2X3 receptor was 0.00398 µM; at human P2X2/3 receptor, 0.0832 µM.

Turning to `Cc1ccc(-c2cc(C(=O)NC(C)c3cnccn3)cc(N3C(=O)OC[C@H]3C(C)C)c2)nc1` (stereo partly drawn) [Compound 10, 3-((R)-4-Isopropyl-2-oxo-oxazolidin-3-yl)-5-(5-methyl-pyridin-2-yl)-N-(1-pyrazin-2-yl-ethyl)-benzamide], the results for the Ki at rat P2X3 receptor and at human P2X2/3 receptor were 0.00355 µM and 0.0263 µM, respectively.

Consider `Cc1ccc(-c2cc(C(=O)NC3CC3)cc(N3C(=O)OC[C@H]3C(C)C)c2)nc1` [Compound 8, N-Cyclopropyl-3-((R)-4-isopropyl-2-oxo-oxazolidin-3-yl)-5-(5-methyl-pyridin-2-yl)-benzamide], for which the Ki at rat P2X3 receptor is 0.00269 µM; on human P2X2/3 receptor it was 0.132 µM.

Turning to `Cc1ccc(-c2cc(C(=O)NC(C)c3cnccn3)cc(-n3c(=O)oc4ccccc43)c2)nc1` (stereo not shown) [Compound 2, 3-(5-Methyl-pyridin-2-yl)-5-(2-oxo-benzooxazol-3-yl)-N-(1-pyrazin-2-yl-ethyl)-benzamide], the Ki is 0.00309 µM at rat P2X3 receptor and 0.0282 µM at human P2X2/3 receptor.

Take `Cc1ccc(-c2cc(C(=O)N[C@@H](C)CO)cc(-n3c(=O)oc4ccccc43)c2)nc1` [Compound 3, N-((S)-2-Hydroxy-l-methyl-ethyl)-3-(5-methyl-pyridin-2-yl)-5-(2-oxo-benzooxazol-3-yl)-benzamide]: the Ki was 0.00331 µM at rat P2X3 receptor and 0.234 µM at human P2X2/3 receptor.

Consider `Cc1ccc(-c2cc(C(=O)NCc3cccnn3)cc(-n3c(=O)oc4ccccc43)c2)nc1` [Compound 14, 3-(5-Methyl-pyridin-2-yl)-5-(2-oxo-benzooxazol-3-yl)-N-pyridazin-3-ylmethyl-benzamide], for which the figures for the Ki at rat P2X3 receptor and at human P2X2/3 receptor were 0.00851 µM and 0.263 µM, respectively.

The record behind these values is US8093275B2, “Oxazolone and pyrrolidinone-substituted pryidine amides as P2X3 and P2X2/3 antagonists” (Roche Palo Alto LLC, priority 2009, dated 2012).
